Results published in ChEMBL document CHEMBL3393049, “Syntheses and Antituberculosis Activity of 1,3-Benzothiazinone Sulfoxide and Sulfone Derived from BTZ043” (ACS Med Chem Lett, 2015).
Values after ≈ are worked out from the molar mass of the structure shown.

Columns and labels:
[1] = Cytotoxicity against human PC3 cells after 72 hrs by crystal violet biomass reduction assay; format: cell-based, PC-3
[2] = tested on: Mycolicibacterium smegmatis; experiment: Antimycobacterial activity against Mycobacterium smegmatis str. MC2 155 assessed as reduction in bacterial growth incubated for 18 to 20 hrs by broth microdilution method; format: functional
[3] = Cytotoxicity against human MCF7 cells after 72 hrs by crystal violet biomass reduction assay; format: cell-based
[4] = tested on: Mycobacterium kansasii; experiment: Antimycobacterial activity against Mycobacterium kansasii ATCC 12478 assessed as reduction in bacterial growth incubated for 6 days by MABA method; format: functional; conditions: ATCC 12478, 144 h
[5] = tested on: Mycobacterium tuberculosis; experiment: Antimycobacterial activity against Mycobacterium tuberculosis H37Rv ATCC 27294 assessed as reduction in bacterial growth incubated for 7 days under 7H12 medium by MABA method; format: functional; conditions: H37Rv ATCC 27294, 168 h
[6] = Cytotoxicity against human HeLa cells after 72 hrs by crystal violet biomass reduction assay; format: cell-based
[7] = tested on: Acinetobacter baumannii; experiment: Antibacterial activity against Acinetobacter baumannii ATCC 17961 assessed as reduction in bacterial growth incubated for 18 to 20 hrs by broth microdilution method; format: functional
[8] = tested on: Staphylococcus aureus; experiment: Antibacterial activity against Staphylococcus aureus SG511 assessed as reduction in bacterial growth incubated for 18 to 20 hrs by broth microdilution method; format: functional
[9] = tested on: Mycobacterium tuberculosis; experiment: Antimycobacterial activity against Mycobacterium tuberculosis H37Rv ATCC 27294 assessed as reduction in bacterial growth incubated for 7 days under GAS medium by MABA method; format: functional; conditions: H37Rv ATCC 27294, 168 h
[10] = tested on: Mycolicibacterium vaccae; experiment: Antimycobacterial activity against Mycobacterium vaccae IMET10670 assessed as reduction in bacterial growth incubated for 18 to 20 hrs by broth microdilution method; format: functional
[11] = tested on: Micrococcus luteus; experiment: Antibacterial activity against Micrococcus luteus ATCC 10240 assessed as reduction in bacterial growth incubated for 18 to 20 hrs by broth microdilution method; format: functional
[12] = tested on: Pseudomonas aeruginosa; experiment: Antibacterial activity against Pseudomonas aeruginosa KW799/61 assessed as reduction in bacterial growth incubated for 18 to 20 hrs by broth microdilution method; format: functional
[13] = tested on: Mycolicibacterium aurum; experiment: Antimycobacterial activity against Mycobacterium aurum SB66 assessed as reduction in bacterial growth incubated for 18 to 20 hrs by broth microdilution method; format: functional
[14] = tested on: Mycobacterium marinum; experiment: Antimycobacterial activity against Mycobacterium marinum ATCC 927 assessed as reduction in bacterial growth incubated for 5 days by MABA method; format: functional; conditions: ATCC 927, 120 h

Structure (SMILES) | CC50 at 72 h [1] | MIC [2] | CC50 at 72 h [3] | MIC [4] | MIC [5] | CC50 at 72 h [6] | MIC [7] | MIC ([8]; read-out: MIC) | MIC [9] | MIC [10] | MIC [11] | MIC [12] | MIC [13] | MIC [14] | MIC [8]
C[C@H]1COC2(CCN(c3nc(=O)c4cc(C(F)(F)F)cc([N+](=O)[O-])c4[s+]3[O-])CC2)O1 (some centres not stated) | 15 µM | < 0.013 µM | > 20 µM | 0.3 µM (≈ 0.134 µg/mL) | 0.06 µM (≈ 0.0268 µg/mL) | > 20 µM | > 200 µM | 12.5 µM (≈ 5.59 µg/mL) | < 0.02 µM | < 0.013 µM | 50 µM (≈ 22.4 µg/mL) | > 200 µM | 3.13 µM (≈ 1.4 µg/mL) | 0.19 µM (≈ 0.085 µg/mL) | –
C[C@H]1COC2(CCN(C3=NC(=O)c4cc(C(F)(F)F)cc([N+](=O)[O-])c4S3(=O)=O)CC2)O1 | > 20 µM | > 0.5 µM | > 20 µM | > 1 µM | 0.48 µM (≈ 0.222 µg/mL) | > 20 µM | > 200 µM | – | 0.51 µM (≈ 0.236 µg/mL) | < 0.013 µM | > 200 µM | > 200 µM | > 200 µM | > 1 µM | 200 µM (≈ 92.7 µg/mL)
C[C@H]1COC2(CCN(c3nc(=O)c4cc(C(F)(F)F)cc([N+](=O)[O-])c4s3)CC2)O1 [BTZ-043] | > 20 µM | 0.002 µM (≈ 0.000863 µg/mL) | > 20 µM | < 0.02 µM | < 0.02 µM | > 20 µM | > 200 µM | – | < 0.02 µM | 0.002 µM (≈ 0.000863 µg/mL) | > 200 µM | > 200 µM | > 200 µM | 0.037 µM (≈ 0.016 µg/mL) | > 200 µM
O=C(O)c1cn(C2CC2)c2cc(N3CCNCC3)c(F)cc2c1=O [CIPROFLOXACIN] | – | 0.32 µM (≈ 0.106 µg/mL) | – | – | – | – | 0.156 µM (≈ 0.0517 µg/mL) | 0.32 µM (≈ 0.106 µg/mL) | – | 0.32 µM (≈ 0.106 µg/mL) | 1.25 µM (≈ 0.414 µg/mL) | 0.156 µM (≈ 0.0517 µg/mL) | 0.02 µM (≈ 0.00663 µg/mL) | – | –
NNC(=O)c1ccncc1 [ISONIAZID] | – | – | – | 3.86 µM (≈ 0.529 µg/mL) | 0.1 µM (≈ 0.0137 µg/mL) | – | – | – | 0.03 µM (≈ 0.00411 µg/mL) | – | – | – | – | > 8 µM | –
CO[C@H]1/C=C/O[C@@]2(C)Oc3c(C)c(O)c4c(O)c(c(/C=N/N5CCN(C)CC5)c(O)c4c3C2=O)NC(=O)/C(C)=C\C=C\[C@H](C)[C@H](O)[C@@H](C)[C@@H](O)[C@@H](C)[C@H](OC(C)=O)[C@@H]1C [RIFAMPIN] | – | – | – | 0.1 µM (≈ 0.0823 µg/mL) | 0.05 µM (≈ 0.0411 µg/mL) | – | – | – | 0.04 µM (≈ 0.0329 µg/mL) | – | – | – | – | 0.23 µM (≈ 0.189 µg/mL) | –
